Several values for one entry are separate records, joined by “and”; a condition that tells them apart may be missing. Equal values may be shown once.
Legend:
Format in all cases: physicochemical
[1] = Thermodynamics of isomerization, Kt/c versus temperature, Van't Hoff plots; conditions: D2O; for ΔG° (298K) of isomerization: in kcal/mol; for ΔH° of isomerization / ΔS° of isomerization: Van't Hoff plots
Experimental: Thermodynamics The effects of temperature on the values Kt/c=(kct/ktc) for each compound were measured directly by NMR spectroscopy over the temperature range 25-93° C. The resulting data were analyzed by Van't Hoff plots (FIG. 7). […] In this case the major cis isomer becomes increasingly favored as the temperature decreases. Values for ΔH^o and ΔS^o were calculated from linear least-squares fits of these plots (Table 6).
(§1) Thermodynamics. The equilibrium constants for the interconversion of the cis and trans isomers of 3-6 were determined by measuring the peak area of the 1H resonance for the two isomers. Peak areas were measured with the program Spinworks 2.5. Experiments were conducted at 298-360 K. Equilibrium constants (Kt/c=trans/cis ratios) were calculated directly from the peak areas.

[2] = Prolyl amide trans/cis ratio by 1H-NMR integration (peptide mimics 3-8); conditions: for Experimental distribution of cis conformers / Experimental distribution of trans conformers / Cis population of prolyl N-acetyl N′-methylamides: in D2O; for Experimental distribution of cis conformers / Experimental distribution of trans conformers: 1H-NMR integration; for Trans/cis ratio Kt/c / cis % isomer: in water, 500 MHz NMR at 25 °C; for Trans/cis ratio Kt/c: ±0.04; for cis % isomer / Cis population of prolyl N-acetyl N′-methylamides: ±3%
Experimental: For each compound 3-6, the ratio of trans/cis isomers was calculated by integrating and averaging as many well-resolved proton signals as possible in the ^1H-NMR spectra (Table 2) (taylor et al., 2003).
The cis population of peptide mimics 7 and 8 are presented in Table 3 together with previously published data for proline analog 9 (Beausoleil and Lubell, 1996), 5-methylproline analogs 10 and 11 (Delaney and Madison, 1982) and 5-tent-butylproline analogs 12 and 13 (Beausoleil and Lubell, 1996).
as §1

[3] = Kinetics of prolyl amide cis/trans isomerization by 1H-NMR inversion-magnetization transfer, Eyring plots; conditions: for Free energy of activation ΔG‡ cis to trans / Free energy of activation ΔG‡ trans to cis: at 298K, D2O; for Rate constant ktc (trans to cis): calculated from kct and Kt/c
Experimental: Kinetics of cis-trans prolyl amide bond isomerization in peptide mimics 3-6. The kinetics of cis/trans isomerization for compounds 3-6 were determined by ^1H-NMR spectroscopy inversion-magnetization transfer experiments (Perrin and Dwyer, 1990; Reimer et al., 1998) in D2O (Table 4). Because the rates for cis/trans isomerization are extremely slow in protic solvents, the inventors performed these experiments at elevated temperatures (Stein, 1993). At 83° C., the trans-to-cis rate constants of isomerizations (ktc) follows the order 4<5≈6<3. A 200-fold rate difference is observed for diastereomeric amides 3 and 4.
The effects of temperature on kct and ktc were analyzed by Eyring plots (FIG. 6) (Eyring, 1935). The values for ΔH^‡ and ΔS^‡ (Table 5) were calculated from linear least squares fits of the data in these plots (Eyring, 1935). […] However, the activation enthalpy is partially compensated by a higher activation entropy.
Inversion-magnetization transfer NMR experiments were performed on Bruker AMX500 spectrometer equipped with selective excitation units, and ^1H and broadband heteronuclear probes. Samples of 3-6 were prepared at a concentration of 0.01 M in D2O. The rate of prolyl peptide bond isomerization can not be detected by this method at room temperature. Experiments were therefore conducted at elevated temperature at 356 K. Temperature settings of the spectrometer were calibrated to within 1° C. by reference to a glycol standard.

[4] = Cis population and equilibrium constant Kc/t of GlcTProLysC peptide mimics by 1H NMR, pH effect; conditions: HCl salt; for Equilibrium constant Kc/t / Cis population: in D2O; for Equilibrium constant Kc/t: ±0.04; for Cis population: ±3%; for Kc/t: D2O
Experimental: The equilibrium constants Kc/t for compounds 3-22 to 3-25 are shown in Table 15 and were determined by integrating and averaging as many distinct proton signals as possible for both the major and minor isomers in the ^1H NMR spectra (Taylor et al., 2003). […] It appears that the stereochemistry at C-5′ has a profound effect on the equilibrium of isomerization. Also, the cis prolyl amide population in esters 3-22 and 3-23, was generally lower than N′-methylamides 3-24 and 3-25. Taylor and co-workers have proposed that the trans conformation of esters is stabilized relative to amides as a result of increased electron donation from the oxygen lone pair of the N-terminal amide carbonyl group to the antibonding orbital of the prolyl C-terminal carbonyl group (FIG. 20) (Taylor et al., 2003).
Effect of pH. Since compound 3-22 to 3-25 have an ionizable amino group, the inventors were interested to study the influence of the ionization state on Kt/c. […] The inventors selected three buffer ranges: pH=2.6, 7.4 and 12.4, to examine the pH effect on the isomerization of 3-24 and 3-25 (Table 16).
Measurement of equilibrium constant: The calculation was based on the integration of well-resolved peaks of the γ-protons, N-terminal methyl group and α-proton in ^1H NMR.

Compound	Equilibrium constant Kc/t [4]	Cis population [4]	ΔG° (298K) of isomerization [1]	ΔH° of isomerization [1]	ΔS° of isomerization [1]	Trans/cis ratio Kt/c [2]	cis % isomer [2]	Rate constant kct (cis to trans) ([3]; D2O at 83 °C)	Activation enthalpy ΔH‡ cis to trans ([3]; Eyring plots in D2O)	Activation enthalpy ΔH‡ trans to cis ([3]; Eyring plots in D2O)	Activation entropy ΔS‡ cis to trans ([3]; Eyring plots in D2O)	Activation entropy ΔS‡ trans to cis ([3]; Eyring plots in D2O)	Free energy of activation ΔG‡ cis to trans [3]	Free energy of activation ΔG‡ trans to cis [3]	Rate constant ktc (trans to cis) ([3]; D2O at 83 °C)	other results
COC(=O)C1N(C(C)=O)C(CO)CC12OC(CO)C(O)C(O)C2O [Compound 3, (1S)-2,3,4,6-Tetrahydroxy-1′-N-acetyl-5′(S)-hydroxymethylene-spiro[1,5-anhydro-D-glucitol-1,3′-L-prolinemethyl ester]]	–	–	−0.80 ± 0.13	-1.67 ± 0.06 kcal/mol	−2.93 ± 0.20 cal/mol•K	3.35	23%	0.18 ± 0.01 s⁻¹	26.1 kcal/mol	26.4 kcal/mol	11.1 cal/mol.K	10.2 cal/mol.K	22.8 kcal/mol	23.4 kcal/mol	0.08 ± 0.004 s⁻¹	Experimental distribution of cis conformers [2]: 23±3%; Experimental distribution of trans conformers [2]: 77 ± 3%; Increase in activation enthalpy compared to compounds 4-6 ([3]; Eyring plots in D2O): 3.9 to 6.8 kcal/mol
COC(=O)C1N(C(C)=O)C(CO)CC12OC(CN)C(O)C(O)C2O.Cl [Compound 3-23, (1S)-6-Amino-6-deoxy-1′-N-acetyl-5′(S)-hydroxymethylene-spiro[1,5-anhydro-D-glucitol-1,3′-L-prolinemethyl ester] HCl salt]	0.23	19%	–	–	–	–	–	–	–	–	–	–	–	–	–	–
COC(=O)[C@@H]1[C@@H](O)CCN1C(C)=O [Compound 5, N-acetyl-3(S)-hydroxy-L-proline methyl ester, reference compound]	–	–	−0.95 ± 0.05	-1.09 ± 0.03 kcal/mol	−0.48 ± 0.08 cal/mol•K	4.88	17%	2.63 ± 0.28 s⁻¹	21.6 kcal/mol	21.5 kcal/mol	3.6 cal/mol.K	1.6 cal/mol.K	20.5 kcal/mol	21.1 kcal/mol	1.02 ± 0.09 s⁻¹	–
COC(=O)[C@@H]1CCCN1C(C)=O [Compound 6, N-acetyl-L-proline methyl ester, reference compound]	–	–	−1.01 ± 0.08	-1.21 ± 0.04 kcal/mol	−0.71 ± 0.12 cal/mol•K	6.14	14%	2.95 ± 0.12 s⁻¹	21.9 kcal/mol	22.5 kcal/mol	4.8 cal/mol.K	3.9 cal/mol.K	20.5 kcal/mol	21.4 kcal/mol	0.82 ± 0.04 s⁻¹	–
COC(=O)C1N(C(C)=O)C(CO)CC12OC(CO)C(O)C(O)C2O [Compound 4, (1S)-2,3,4,6-Tetrahydroxy-1′-N-acetyl-5′(R)-hydroxymethylene-spiro[1,5-anhydro-D-glucitol-1,3′-L-prolinemethyl ester]]	–	–	0.19 ± 0.11	0.50 ± 0.06 kcal/mol	1.05 ± 0.16 cal/mol•K	0.88	53%	16.19 ± 1.19 s⁻¹	19.8 kcal/mol	19.6 kcal/mol	2.2 cal/mol.K	1.9 cal/mol.K	19.1 kcal/mol	19.0 kcal/mol	19.82 ± 1.45 s⁻¹	Experimental distribution of cis conformers [2]: 53±3%; Experimental distribution of trans conformers [2]: 47 ± 3%; Rate acceleration for kct compared to parent compounds 5 and 6 ([3]; D2O at 83 °C): ~6 fold; Rate acceleration for ktc compared to parent compounds 5 and 6 ([3]; D2O at 83 °C): ~20 fold
CNC(=O)C1N(C(C)=O)C(CO)CC12OC(CO)C(O)C(O)C2O [Compound 8, (1S)-2,3,4,6-tetrahydroxy-1′-N-acetyl-5′(R)-hydroxymethylene-spiro[1,5-anhydro-D-glucitol-1,3′-L-prolinemethylamide]]	–	–	–	–	–	–	–	–	–	–	–	–	–	–	–	Cis population of prolyl N-acetyl N′-methylamides [2]: 74% and 74±3%
CNC(=O)C1N(C(C)=O)C(CO)CC12OC(CO)C(O)C(O)C2O [Compound 7, (1S)-2,3,4,6-Tetrahydroxy-1′-N-acetyl-5′(S)-hydroxymethylene-spiro[1,5-anhydro-D-glucitol-1,3′-L-prolinemethylamide]]	–	–	–	–	–	–	–	–	–	–	–	–	–	–	–	Cis population of prolyl N-acetyl N′-methylamides [2]: 38% and 38±3%
CNC(=O)C1N(C(C)=O)C(CO)CC12OC(CN)C(O)C(O)C2O.Cl [Compound 3-25, (1S)-6-Amino-6-deoxy-1′-N-acetyl-5′(S)-hydroxymethylene-spiro[1,5-anhydro-D-glucitol-1,3′-L-prolinemethyl amide] HCl salt]	0.56	36%	–	–	–	–	–	–	–	–	–	–	–	–	–	Kc/t ([4]; pD 2.6, ±0.04): 0.61; Kc/t ([4]; pD 7.4, ±0.04): 0.56; Kc/t ([4]; pD 12.4, ±0.04): 0.61
COC(=O)C1N(C(C)=O)C(CO)CC12OC(CN)C(O)C(O)C2O.Cl [Compound 3-22, (1S)-6-Amino-6-deoxy-1′-N-acetyl-5′(R)-hydroxymethylene-spiro[1,5-anhydro-D-glucitol-1,3′-L-prolinemethyl ester] HCl salt]	1.22	55%	–	–	–	–	–	–	–	–	–	–	–	–	–	–
CNC(=O)C1N(C(C)=O)C(CO)CC12OC(CN)C(O)C(O)C2O.Cl [Compound 3-24, (1S)-6-Amino-6-deoxy-1′-N-acetyl-5′(R)-hydroxymethylene-spiro[1,5-anhydro-D-glucitol-1,3′-L-prolinemethyl amide] HCl salt]	3.03	75%	–	–	–	–	–	–	–	–	–	–	–	–	–	Kc/t ([4]; pD 2.6, ±0.04): 3.03; Kc/t ([4]; pD 7.4, ±0.04): 3.03; Kc/t ([4]; pD 12.4, ±0.04): 2.70
